Tests used:
LAT-1 [1] = target: T1, LAT-1 (Homo sapiens, UniProt Q01650); experiment: Boron accumulation in presence of LAT-1 inhibitors (unpublished); type: cell-based; conditions: unpublished earlier work of the applicant
Target sequence in this assay (Q01650 whole entry, species assumed): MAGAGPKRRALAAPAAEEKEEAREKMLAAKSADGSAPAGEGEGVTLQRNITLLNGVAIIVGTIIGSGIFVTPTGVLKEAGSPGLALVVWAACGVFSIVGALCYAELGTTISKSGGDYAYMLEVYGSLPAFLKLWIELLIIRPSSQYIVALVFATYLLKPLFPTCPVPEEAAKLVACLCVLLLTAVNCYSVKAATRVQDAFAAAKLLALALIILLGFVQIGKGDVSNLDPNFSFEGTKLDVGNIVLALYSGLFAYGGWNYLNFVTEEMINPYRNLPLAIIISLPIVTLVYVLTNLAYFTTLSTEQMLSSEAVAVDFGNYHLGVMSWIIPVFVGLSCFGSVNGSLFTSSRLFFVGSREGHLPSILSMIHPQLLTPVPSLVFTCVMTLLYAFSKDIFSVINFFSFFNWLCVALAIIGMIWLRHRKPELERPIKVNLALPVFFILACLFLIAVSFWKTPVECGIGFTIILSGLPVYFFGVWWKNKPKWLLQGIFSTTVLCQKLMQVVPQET
Target sequence in this assay (P08195 102-630 partner, species assumed): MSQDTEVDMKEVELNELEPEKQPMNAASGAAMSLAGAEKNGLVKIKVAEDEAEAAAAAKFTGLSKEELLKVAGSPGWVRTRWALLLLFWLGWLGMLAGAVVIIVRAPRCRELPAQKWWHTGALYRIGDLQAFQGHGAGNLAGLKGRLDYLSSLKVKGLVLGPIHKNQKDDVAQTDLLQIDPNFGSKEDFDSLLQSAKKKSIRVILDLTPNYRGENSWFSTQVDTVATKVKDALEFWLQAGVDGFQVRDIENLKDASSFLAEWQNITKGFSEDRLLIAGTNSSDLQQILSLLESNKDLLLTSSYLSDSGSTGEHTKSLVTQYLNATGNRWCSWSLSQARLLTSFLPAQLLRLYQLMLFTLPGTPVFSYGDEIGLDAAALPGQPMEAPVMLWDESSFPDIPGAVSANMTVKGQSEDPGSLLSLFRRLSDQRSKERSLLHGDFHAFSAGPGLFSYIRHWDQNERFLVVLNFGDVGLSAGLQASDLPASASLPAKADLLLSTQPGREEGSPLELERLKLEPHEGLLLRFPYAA

[2] = Pharmacokinetics in non-tumor-bearing Balb/C mice (blood boron by ICP OES); type: in vivo; conditions: for CL / Vss: i.v. tail vein, Balb/C male mice, blood boron
Method: To determine the pharmacokinetics of BTS versus BPA (BPA-fructose) in blood, the following experiments were performed using the following protocols and under the parameters set forth in Table II. Briefly, […] of each compound ([…] and BPA-fructose) was injected into the tail vein of Balb/C non-tumor bearing male mice (5 mice per group). Blood was drawn at the following time points: 2, 5, 16, 30, 60, 120 and 240 min into EDTA-coated tubes. Boron concentration was measured using ICP OES following the digestion in concentrated nitric acid for one (1) hr. The boron concentration was normalized to 1 mL of blood and plotted using GraphPad Prizm. The PK parameters (see 20(B)) were obtain using PK Solver version 2.0 using compartmental analysis. BPA-fructose was used as a reference substance.

[3] = Cellular retention of boron after removal of boron source from the media; type: cell-based
FaDu cells = experiment: Boron uptake in FaDu cells in vitro (ICP-OES); type: cell-based, human; conditions: for intracellular boron concentration: equimolar 2.5 mM compound in HBSS, 2 hr, 37° C., ICP-OES
Solubility in water = type: physicochemical
Method: To determine the solubility and impurity profiles of BTS and BTS(OMe) in solution, the following experiments were performed using the following protocols. Briefly, BTS test article preparation(s) were prepared by dissolving in water and adjusting pH to 7-7.5 by NaOH.
BTS(OMe) test article preparation(s) were prepared by dissolving in water and gradually raising pH by adding NaOH until all the crystals are solubilized. The pH at that point is approximately 9.5-10. Fructose is then added at the ratio of 1.1 mol/mol BTS(OMe). The pH is adjusted to 7-7.5 using concentrated HCl.
Both solutions were adjusted to 100 mg/mL and 0.2 μm filtered. The actual concentrations are confirmed by ICP OES.

[4] = system: FaDu, Detroit 562, MeWo, A549, HCC-1954 xenografts; experiment: Boron uptake across panel of established tumor xenografts; type: in vivo; conditions: BTS or BTS(OMe) 800 mg/kg vs BPA 200 mg/kg, 2 hours post-injection, SCID CB-17 mice
Description: In a further experiment, to ascertain whether BTS and BTS(OMe) are taken up to a relatively higher degree across cancer multiple cell lines which results in a higher boron concentration, the following protocol was used. Briefly, a panel of five (5) human cancer cell lines derived from multiple indications that would be considered for treatment using BNCT were used. Specifically, the panel consisted of Head and Neck Carcinomas (FaDu and Detroit 562), melanoma (MeWo), non-small cancer lung carcinoma (A549), and breast carcinoma (HCC-1954).
Using standard methods, subcutaneously implanted established mouse xenografts were grown in SCID CB-17 mice. The treatment began when the tumors reached 150-200 mm^3 as follows: the BTS or BTS(OMe) arms received 800 mg/kg and the control BPA arm received 200 mg/kg. The animals were euthanized at two (2) hours post-injection. The tumors were harvested, weighed, and digested using the standard methods. The concentration of boron was measured by ICP OES and plotted as microgram per gram tissue. […] However, the absolute uptake varied between the cell lines with the overall lowest uptake observed in the Detroit 562 tumors.

subcutaneous FaDu tumors = experiment: Time-course biodistribution and tumor to blood ratio in mice bearing subcutaneous FaDu tumors; type: in vivo; conditions: 400 mg/kg bolus i.v.
Method: To determine the biodistribution of BTS and BTS(OMe) and the tumor to blood ration, the following experiments were performed using the following protocols. Briefly, all compounds tested, with the exception of BPA, were prepared as 100 mg/mL stocks. BPA was prepared as a fructose solution at 25 mg/ml. The concentrations were confirmed by ICP OES prior to the study. The blood and tissues (tumor, kidney, and pancreas) were harvested at the times indicated, weighed, and placed inside the Teflon containers and digested using a CEM microwave oven. The digested tissues were analyzed by ICP OES to determine the boron concentration.
All animal studies were carried out following the “Guide for the care and use the laboratory animals,” Eighth Edition and Animal Welfare Act (USDA). Briefly, human hypopharyngeal squamous cell carcinoma FaDu cells were maintained in DMEM, supplemented with L-glutamine and 10% FBS. Subcutaneous (s.c.) tumors were generated by injection of 2.5×10^6 cancer cells mixed at a 1:1 dilution with Matrigel (Corning Life Sciences) in the right flank of female CB17 SCID mice. Tumor sizes were determined by caliper measurements, and the tumor volume was calculated as width^2×Length/2, wherein width is the smallest dimension and length is the largest dimension. Tumors were allowed to grow untreated until they reached an approximate volume of 300 mm^3. At that point, animals were randomized and allocated to each treatment group based on tumor volume at the time of treatment initiation to ensure similar mean tumor size and variation in each group.
Each group received a single dose of BPA at […] or a test article at either 400 mg/kg or […] via intravenous tail vein injection. […] Two (2) hrs. post dose, blood was collected from each mouse from the submandibular vein into K2 EDTA coated tubes. Tumor and organs were collected for boron analysis.
In order to determine the biodistribution of BTS and BTS(OMe) in FaDu-tumor bearing mice and determine the most appropriate time to harvest the tumor and organs of interest during the subsequent dose-escalation studies, 400 mg/kg doses of both molecules were administered as a bolus i.v. injection. BPA-fructose was administered at a dose of […] due to its solubility constraints and the requirements for the maximum i.v. volume allowed. The boron compound accumulation in blood/organs was determined by ICP OES and expressed as μg boron per gram of tissue.

subcutaneous FaDu = experiment: Dose titration, biodistribution and boron uptake using subcutaneous FaDu xenografts; type: in vivo, mice; conditions: 2 hr post injection
Method: To determine the biodistribution and boron uptake of BTS and BTS(OMe) in vivo, the following experiments were performed using the following protocols. Briefly, to evaluate the effect of increased dose level using bolus i.v. injection on the accumulation of boron in the tumor, SCID mice carrying subcutaneous FaDu were dosed with BTS and BTS(OMe) at the levels ranging from 400 to 1000 mg/kg.
The tumor and selected organs were harvested at two (2) hr. post injection and processed for ICP OES.

[5] = system: FaDu, A375, SCC-25, A253, and Detroit 562; experiment: BTS uptake across head and neck cancer and melanoma cell lines; type: cell-based, human; conditions: 2 hours treatment, each of the five cell lines
Method: To evaluate the uptake of BTS in multiple head and neck cancer cell lines as well as melanoma cell lines the following experiments were performed using the following protocols.
Briefly, five (5) human-derived cell lines (FaDu, A375, SCC-25, A253, and Detroit 562), all representing cancer indications relevant to BNCT treatment, were cultured, and treated with either BPA-fructose (the standard of care) or with BTS for two (2) hours. The cells were then washed to remove the compounds, harvested, and treated as per the protocol described above. Boron uptake was reported as μg boron per mg of cellular protein as determined by ICP OES and by the BCA assay, respectively.

CT26 cells = experiment: Boron uptake in CT26 cells in vitro (ICP-OES); type: cell-based, mouse; conditions: CT26 cell line, single experiment
Description: As a result, it accumulates boron compounds at significant levels. Additionally, FaDu also grows well as an established xenograft model in SCID mice. This disclosure endeavored to determine whether a mouse-derived cancer cell line, CT-26, is suitable for BNCT experiments. By way of background, CT26 is a syngeneic model, it can be implanted and established in wild-type BalbC mice and provides a convenient and low-cost model.
Briefly, CT26 cells were harvested and washed with PBS two (2) times, and the count was adjusted 2 million/ml in HBSS media Boron compounds were then added to cells at the final concentration of 2.5 mM in HBSS and the cells were incubated at 37° C. in a humidified 5% CO2 atmosphere for 2.0 hrs. with shaking. Following a two (2) hr. incubation, cells were harvested and washed two times with ice cold PBS. Cells were suspended in 1 ml ice cold PBS and a portion (50 NI) was lysed in RIPA buffer and protein content was determined by BCA assay.
The remaining portion (950 NI) was subjected to nitric acid lysis (66.7% acid at 80° C.) and boron measurements were carried out using ICP-OES.
Low expression of LAT-1 in CT26 estimated by Western blot is consistent with the overall reduced boron uptake. Each bar represents three (3) independent experiments performed on different days (FaDu) or a single experiment (CT-26) Error bars represent 1 standard deviation. […]

LAT-1 [6] = target: T1, LAT-1; experiment: Uptake competition assay with phenylalanine in FaDu cells; type: cell-based; set-up: endogenous in cells; host or cells: FaDu; conditions: 0.5 mM compound, Phe 0.01 to 20 mM, compared to BTS(OMe) or BPA
Method: To determine the ability for BTS and BTS(OMe) to mediate LAT-1, the following experiments were performed using the following protocols. Briefly, FaDu cells (2 million) were incubated in HBSS medium for two (2) hrs. at 37° C. with 0.5 mM of either (i) BTS, (ii) BTS(OMe), or (iii) BPA-fructose in the absence (19A) or presence of increasing concentrations of LAT-1 specific inhibitor JPH203-dichloride, (19A) or phenylalanine, a competitor (19B). Following incubation, the cells were harvested and washed with cold PBS. The amount of each compound that was taken up by the cells was determined by ICP OES. The IC50 determination was made by a three (3) parameter inhibitor non-linear regression fit using Prism (Graph Pad) software.
In the competition assay, increased concentration of Phe in the range of 0.01 to 20 mM was used. […] (FIG. 19).
Target sequence in this assay (Q01650 whole entry): as the sequence (Q01650 whole entry, species assumed) above
Target sequence in this assay (P08195 102-630 partner): as the sequence (P08195 102-630 partner, species assumed) above

[7] = system: F98 and C6 rat glioma cell lines; experiment: BTS uptake using rat glioma cell lines; type: cell-based; conditions: 2 hr, F98 and C6 cells
Description: Rat glioma cell lines were extensively used as orthotopic cancer models to conduct reactor based BNCT studies using either innovative boron carriers or a myriad of ways to enhance the uptake of BPA, including convection enhanced delivery of boronoporphyrins (Yang, et al., doi:10.1016/j.apradiso.2014.01.002), or pre-treatment of tumors with L-DOPA (Barth, et al., J Neurooncol. 2009; 94:299-312).
In this experiment, used cultured cell lines to confirm that BTS can be used for efficient boron delivery into both F98 and C6 rat glioma cell lines. […] This compound is expected to cross BBB and will be relevant for BNCT of brain tumors.

Row | Compound | CL [2] | Vss [2] [mg/µg/mL] | solubility in water (Solubility in water) | amount of boron in tumors across xenograft panel [4] | effect of LAT-1 inhibitor on boron accumulation of borylated tyrosine analogs (LAT-1 [1]) | intracellular boron concentration (FaDu cells) [µg/g] | also measured
1 | NC1(C(=O)O)CC2CCC1C2 (stereo not shown) [BCH, 2-aminobicyclo-(2,2,1)-heptane-2-carboxylic acid] |  |  |  |  | diminished boron accumulations in a concentration-dependent fashion |  | 
2 | Nc1cc(COc2c(Cl)cc(C[C@H](N)C(=O)O)cc2Cl)c2oc(-c3ccccc3)nc2c1 [JPH203] |  |  |  |  | diminished boron accumulations in a concentration-dependent fashion |  | 

The next lines start with results.

Row | CL [2] | Vss [2] [mg/µg/mL] | solubility in water (Solubility in water) | amount of boron in tumors across xenograft panel [4] | Compound | effect of LAT-1 inhibitor on boron accumulation of borylated tyrosine analogs (LAT-1 [1]) | intracellular boron concentration (FaDu cells) [µg/g] | also measured
3 | 0.00011 mg/(μg/mL)/min | 0.0289 |  |  | N[C@@H](Cc1ccc(B(O)O)cc1)C(=O)O [BPA, 4-Borono-L-phenylalanine, reference compound] |  | 1097 ± 59 | intracellular boron once boron source is removed and replaced with fresh medium (cellular retention) [3]: decreases sharply
4 |  |  | very soluble in water | highest | COc1ccc(C[C@H](N)C(=O)O)cc1B(O)O [BTS(OMe)] |  | 1005 ± 113 | biodistribution compared to BPA (subcutaneous FaDu tumors; BPA-fructose 200): remarkably similar in its biodistribution to BPA; accumulation in kidney or pancreas (subcutaneous FaDu): does not accumulate
5 | 0.000304 mg/(μg/mL)/min | 0.0252 | very soluble in water | highest | N[C@@H](Cc1ccc(O)c(B(O)O)c1)C(=O)O [BTS] |  | 1700 ± 133 | pharmacokinetic profile ([2]; saline formulation, i.v.): bi-phasic pharmacokinetics; boron uptake compared to BPA-fructose [5]: superior uptake; amount of compound internalized in CT26 less than in FaDu (CT26 cells): more pronounced; IC50 of phenylalanine competition of compound uptake (LAT-1 [6]): higher IC50; intracellular boron concentration higher compared to BPA-fructose (FaDu cells; equimolar concentrations): 60%; uptake in murine pancreas (subcutaneous FaDu tumors): exceedingly high uptake; increase of tumor to blood ratio between 30 and 60 min (subcutaneous FaDu tumors; FaDu xenografts): more than two-fold; decline of boron in the kidney (subcutaneous FaDu tumors; from initial time point of 5 min): considerably slower; boron concentration achieved, BTS compared to BPA-fructose [7]: > 2 fold
